Laboratory results as given in ChEMBL document CHEMBL4033766, “Discovery of the Antitumor Effects of a Porphyrazine Diol (Pz 285) in MDA-MB-231 Breast Tumor Xenograft Models in Mice” (ACS Med Chem Lett, 2017).
Active and inactive are the calls of the source. The rule behind the calls is not given here.

What was measured:
MDA-MB-231 = assay: Antiproliferative activity against human MDA-MB-231 cells at 25 uM after 48 hrs by MTS assay relative to control; type: functional
[1] = Antitumor activity against Her2-positive human MDA-MB-231-LM24 cells xenografted in SCID-beige mouse harboring Td-tomato and Luc2 assessed as survival days at 2.5 mg/kg, iv administered every 7 days for 28 days (reference value: 9.5 days); type: functional
[2] = Antitumor activity against Her2-positive human MDA-MB-231-LM24 cells xenografted in SCID-beige mouse harboring Td-tomato and Luc2 assessed as tumor growth inhibition at 2.5 mg/kg, iv administered every 7 days for 28 days relative to control; type: functional; settings: MDA-MB-231-LM24, iv, read-out: TGI
[3] = Antiproliferative activity against human MDA-MB-231-LM24 cells after 48 hrs by MTS assay; type: functional, cell-based; settings: MDA-MB-231-LM24, 48 h
MDA-MB-231-LM24 = assay: Antimetastatic activity against Her2-positive human MDA-MB-231-LM24 cells xenografted in SCID-beige mouse harboring Luc2 assessed as reduction in tumor burden in lung at 2.5 mg/kg, iv administered every 7 days for 2 weeks by bioluminescence analysis; type: functional, organism-based
[4] = Antitumor activity against Her2-positive human MDA-MB-231-LM24 cells xenografted in SCID-beige mouse harboring Td-tomato and Luc2 assessed as survival days at 1.25 mg/kg, iv administered every 7 days for 28 days (reference value: 9.5 days); type: functional

CO[C@]1(C)OC2=C(O[C@@]1(C)OC)c1nc2nc2[nH]c(nc3nc(nc4[nH]c(n1)c1c4O[C@@](C)(OC)[C@](C)(OC)O1)-c1c(OCCO)ccc(OCCO)c1-3)c1c2O[C@@](C)(OC)[C@](C)(OC)O1 showed an Activity (MDA-MB-231) of 40%, a Survival [1] of 22.5 days and an inhibition in vivo at 2.5 mg/kg [2] of over 65%. The IC50 [3] was 15 µM and the Activity (MDA-MB-231-LM24) was “Active”.
For CO[C@]1(C)OC2=C(O[C@@]1(C)OC)c1nc2nc2[nH]c(nc3nc(nc4[nH]c(n1)c1c4O[C@@](C)(OC)[C@](C)(OC)O1)C1=C3O[C@@](C)(OC)[C@](C)(OC)O1)c1c2O[C@@](C)(OC)[C@](C)(OC)O1, the Activity (MDA-MB-231) was “inactive”.
In the case of COc1cccc2c1C(=O)c1c(O)c3c(c(O)c1C2=O)C[C@@](O)(C(=O)CO)C[C@@H]3O[C@H]1C[C@H](N)[C@H](O)[C@H](C)O1 [DOXORUBICIN], the Survival [1] is reported as 14 days and the Survival [4] is reported as 20 days.
